# Data published in US10131652B2, “Pyrimidinyloxy benzene derivatives as herbicides” (E. I. DU PONT DE NEMOURS AND COMPANY, priority 2014, dated 2018).
# Where two headings read alike, the source gives them in different places.
# How the values were obtained:
# Test in all cases: Test E pre-/postemergence plant response
# Type in all cases: in vivo
# [1] = test system: winter barley (Hordeum vulgare); conditions: scale 0 to 100, read-out: Plant response rating, Barley, Winter; for plant injury at 16 g/ha: 16 g ai/ha; for plant injury at 31 g/ha: 31 g ai/ha; for plant injury at 62 g/ha: 62 g ai/ha; for plant injury at 125 g/ha: 125 g ai/ha
# Source text: (§1) Seeds of plant species selected from bluegrass (annual bluegrass, Poa annua), blackgrass (Alopecurus myosuroides), canarygrass (Phalaris minor), chickweed (common chickweed, Stellaria media), galium (catchweed bedstraw, Galium aparine), downy bromegrass (Bromus tectorum), field poppy (Papaver rhoeas), field violet (Viola arvensis), green foxtail (Setaria viridis), deadnettle (henbit deadnettle, Lamium amplexicaule), Italian ryegrass (Lolium multiflorum), kochia (Kochia scoparia), lambsquarters (Chenopodium album), oilseed rape (Brassica napus), pigweed (Amaranthus retroflexus), Russian thistle (Salsola iberica), chamomile (scentless chamomile, Matricaria inodora), speedwell (bird's-eye speedwell, Veronica persica), spring barley (Hordeum vulgare), spring wheat (Triticum aestivum), wild buckwheat (Polygonum convolvulus), wild mustard (Sinapis arvensis), wild oat (Avena fatua), wild radish (Raphanus raphanistrum), windgrass (Apera spica-venti), winter barley (Hordeum vulgare), and winter wheat (Triticum aestivum) were planted into a silt loam soil and treated preemergence with test chemicals formulated in a non-phytotoxic solvent mixture which included a surfactant. At the same time, these species were planted in pots containing Redi-Earth® planting medium (Scotts Company, 14111 Scottslawn Road, Marysville, Ohio 43041) comprising spaghnum peat moss, vermiculite, wetting agent and starter nutrients and treated with postemergence applications of the test chemicals formulated in the same manner. Plants ranged in height from 2 to 18 cm (1- to 4-leaf stage).
# (§2) Treated plants and controls were maintained in a controlled growth environment for 7 to 21 days after which time all species were compared to controls and visually evaluated. Plant response ratings, summarized in Table E, are based on a scale of 0 to 100 where 0 is no effect and 100 is complete control. A dash (-) response means no test result.
# kochia (Kochia scoparia) = conditions: Bassia scoparia, scale 0 to 100, read-out: Plant response rating, Kochia; for pest or weed control at 16 g/ha: 16 g ai/ha; for pest or weed control at 31 g/ha: 31 g ai/ha; for pest or weed control at 62 g/ha: 62 g ai/ha; for pest or weed control at 125 g/ha: 125 g ai/ha
# Source text: as §1, §2
# [2] = test system: bluegrass (annual bluegrass, Poa annua); conditions: scale 0 to 100, read-out: Plant response rating, Bluegrass; for pest or weed control at 16 g/ha: 16 g ai/ha; for pest or weed control at 31 g/ha: 31 g ai/ha; for pest or weed control at 62 g/ha: 62 g ai/ha; for pest or weed control at 125 g/ha: 125 g ai/ha
# Source text: as §1, §2
# [3] = test system: wild buckwheat (Polygonum convolvulus); conditions: Fallopia convolvulus, scale 0 to 100, read-out: Plant response rating, Buckwheat, Wild; for pest or weed control at 16 g/ha: 16 g ai/ha; for pest or weed control at 31 g/ha: 31 g ai/ha; for pest or weed control at 62 g/ha: 62 g ai/ha; for pest or weed control at 125 g/ha: 125 g ai/ha
# Source text: as §1, §2
# [4] = test system: wild radish (Raphanus raphanistrum); conditions: scale 0 to 100, read-out: Plant response rating, Radish, Wild; for pest or weed control at 16 g/ha: 16 g ai/ha; for pest or weed control at 31 g/ha: 31 g ai/ha; for pest or weed control at 62 g/ha: 62 g ai/ha; for pest or weed control at 125 g/ha: 125 g ai/ha
# Source text: as §1, §2
# [5] = test system: chickweed (common chickweed, Stellaria media); conditions: scale 0 to 100, read-out: Plant response rating, Chickweed; for pest or weed control at 16 g/ha: 16 g ai/ha; for pest or weed control at 31 g/ha: 31 g ai/ha; for pest or weed control at 62 g/ha: 62 g ai/ha; for pest or weed control at 125 g/ha: 125 g ai/ha
# Source text: as §1, §2
# [6] = test system: windgrass (Apera spica-venti); conditions: scale 0 to 100, read-out: Plant response rating, Windgrass; for pest or weed control at 16 g/ha: 16 g ai/ha; for pest or weed control at 62 g/ha: 62 g ai/ha; for pest or weed control at 125 g/ha: 125 g ai/ha
# Source text: as §1, §2
# [7] = test system: galium (catchweed bedstraw, Galium aparine); conditions: scale 0 to 100, read-out: Plant response rating, Galium; for pest or weed control at 16 g/ha: 16 g ai/ha; for pest or weed control at 31 g/ha: 31 g ai/ha; for pest or weed control at 62 g/ha: 62 g ai/ha; for pest or weed control at 125 g/ha: 125 g ai/ha
# Source text: as §1, §2
# [8] = test system: oilseed rape (Brassica napus); conditions: scale 0 to 100, read-out: Plant response rating, Oilseed Rape; for plant injury at 16 g/ha: 16 g ai/ha; for plant injury at 31 g/ha: 31 g ai/ha; for plant injury at 62 g/ha: 62 g ai/ha; for plant injury at 125 g/ha: 125 g ai/ha
# Source text: as §1, §2
# [9] = test system: downy bromegrass (Bromus tectorum); conditions: scale 0 to 100, read-out: Plant response rating, Bromegrass, Downy; for pest or weed control at 16 g/ha: 16 g ai/ha; for pest or weed control at 31 g/ha: 31 g ai/ha; for pest or weed control at 62 g/ha: 62 g ai/ha; for pest or weed control at 125 g/ha: 125 g ai/ha
# Source text: as §1, §2
# [10] = test system: Italian ryegrass (Lolium multiflorum); conditions: scale 0 to 100, read-out: Plant response rating, Ryegrass, Italian; for pest or weed control at 16 g/ha: 16 g ai/ha; for pest or weed control at 31 g/ha: 31 g ai/ha; for pest or weed control at 62 g/ha: 62 g ai/ha; for pest or weed control at 125 g/ha: 125 g ai/ha
# Source text: as §1, §2
smiles,measurement,setting,value
"FC(F)c1cc(-c2ccccc2Oc2ncc(Br)cn2)no1 [Compound 62, 5-bromo-2-[2-[5-(difluoromethyl)-3-isoxazolyl]phenoxy]pyrimidine]",plant injury at 16 g/ha,"[1]; post-emergence, Postemergence",5%
same,plant injury at 31 g/ha,"[1]; post-emergence, Postemergence",10%
same,plant injury at 62 g/ha,"[1]; post-emergence, Postemergence",20%
same,plant injury at 125 g/ha,"[1]; post-emergence, Postemergence",35%
same,plant injury at 16 g/ha,"[1]; pre-emergence, Preemergence",0%
same,plant injury at 31 g/ha,"[1]; pre-emergence, Preemergence",0%
same,plant injury at 62 g/ha,"[1]; pre-emergence, Preemergence",5%
same,plant injury at 125 g/ha,"[1]; pre-emergence, Preemergence",5%
same,pest or weed control at 16 g/ha,"kochia (Kochia scoparia); post-emergence, Postemergence",65%
same,pest or weed control at 31 g/ha,"kochia (Kochia scoparia); post-emergence, Postemergence",75%
same,pest or weed control at 62 g/ha,"kochia (Kochia scoparia); post-emergence, Postemergence",90%
same,pest or weed control at 125 g/ha,"kochia (Kochia scoparia); post-emergence, Postemergence",95%
same,pest or weed control at 16 g/ha,"kochia (Kochia scoparia); pre-emergence, Preemergence",0%
same,pest or weed control at 31 g/ha,"kochia (Kochia scoparia); pre-emergence, Preemergence",5%
same,pest or weed control at 62 g/ha,"kochia (Kochia scoparia); pre-emergence, Preemergence",85%
same,pest or weed control at 125 g/ha,"kochia (Kochia scoparia); pre-emergence, Preemergence",100%
same,pest or weed control at 16 g/ha,"[2]; post-emergence, Postemergence",10%
same,pest or weed control at 31 g/ha,"[2]; post-emergence, Postemergence",35%
same,pest or weed control at 62 g/ha,"[2]; post-emergence, Postemergence",55%
same,pest or weed control at 125 g/ha,"[2]; post-emergence, Postemergence",60%
same,pest or weed control at 16 g/ha,"[2]; pre-emergence, Preemergence",0%
same,pest or weed control at 31 g/ha,"[2]; pre-emergence, Preemergence",5%
same,pest or weed control at 62 g/ha,"[2]; pre-emergence, Preemergence",10%
same,pest or weed control at 125 g/ha,"[2]; pre-emergence, Preemergence",75%
same,pest or weed control at 16 g/ha,"[3]; post-emergence, Postemergence",75%
same,pest or weed control at 31 g/ha,"[3]; post-emergence, Postemergence",80%
same,pest or weed control at 62 g/ha,"[3]; post-emergence, Postemergence",95%
same,pest or weed control at 125 g/ha,"[3]; post-emergence, Postemergence",100%
same,pest or weed control at 16 g/ha,"[3]; pre-emergence, Preemergence",25%
same,pest or weed control at 31 g/ha,"[3]; pre-emergence, Preemergence",35%
same,pest or weed control at 62 g/ha,"[3]; pre-emergence, Preemergence",80%
same,pest or weed control at 125 g/ha,"[3]; pre-emergence, Preemergence",100%
same,pest or weed control at 16 g/ha,"[4]; post-emergence, Postemergence",65%
same,pest or weed control at 31 g/ha,"[4]; post-emergence, Postemergence",70%
same,pest or weed control at 62 g/ha,"[4]; post-emergence, Postemergence",90%
same,pest or weed control at 125 g/ha,"[4]; post-emergence, Postemergence",100%
same,pest or weed control at 16 g/ha,"[4]; pre-emergence, Preemergence",25%
same,pest or weed control at 31 g/ha,"[4]; pre-emergence, Preemergence",40%
same,pest or weed control at 62 g/ha,"[4]; pre-emergence, Preemergence",95%
same,pest or weed control at 125 g/ha,"[4]; pre-emergence, Preemergence",100%
same,pest or weed control at 16 g/ha,"[5]; post-emergence, Postemergence",65%
same,pest or weed control at 31 g/ha,"[5]; post-emergence, Postemergence",70%
same,pest or weed control at 62 g/ha,"[5]; post-emergence, Postemergence",80%
same,pest or weed control at 125 g/ha,"[5]; post-emergence, Postemergence",90%
same,pest or weed control at 16 g/ha,"[5]; pre-emergence, Preemergence",65%
same,pest or weed control at 31 g/ha,"[5]; pre-emergence, Preemergence",75%
same,pest or weed control at 62 g/ha,"[5]; pre-emergence, Preemergence",100%
same,pest or weed control at 125 g/ha,"[5]; pre-emergence, Preemergence",100%
same,pest or weed control at 16 g/ha,"[6]; post-emergence, Postemergence",10%
same,pest or weed control at 31 g/ha,"[6]; post-emergence, 31 g ai/ha, Postemergence",20%
same,pest or weed control at 62 g/ha,"[6]; post-emergence, Postemergence",30%
same,pest or weed control at 125 g/ha,"[6]; post-emergence, Postemergence",65%
same,pest or weed control at 16 g/ha,"[6]; pre-emergence, Preemergence",0%
same,pest or weed control at 62 g/ha,"[6]; pre-emergence, Preemergence",50%
same,pest or weed control at 125 g/ha,"[6]; pre-emergence, Preemergence",50%
same,pest or weed control at 16 g/ha,"[7]; post-emergence, Postemergence",70%
same,pest or weed control at 31 g/ha,"[7]; post-emergence, Postemergence",70%
same,pest or weed control at 62 g/ha,"[7]; post-emergence, Postemergence",75%
same,pest or weed control at 125 g/ha,"[7]; post-emergence, Postemergence",90%
same,pest or weed control at 16 g/ha,"[7]; pre-emergence, Preemergence",5%
same,pest or weed control at 31 g/ha,"[7]; pre-emergence, Preemergence",60%
same,pest or weed control at 62 g/ha,"[7]; pre-emergence, Preemergence",65%
same,pest or weed control at 125 g/ha,"[7]; pre-emergence, Preemergence",100%
same,plant injury at 16 g/ha,"[8]; post-emergence, Postemergence",65%
same,plant injury at 31 g/ha,"[8]; post-emergence, Postemergence",80%
same,plant injury at 62 g/ha,"[8]; post-emergence, Postemergence",80%
same,plant injury at 125 g/ha,"[8]; post-emergence, Postemergence",100%
same,plant injury at 16 g/ha,"[8]; pre-emergence, Preemergence",10%
same,plant injury at 31 g/ha,"[8]; pre-emergence, Preemergence",25%
same,plant injury at 62 g/ha,"[8]; pre-emergence, Preemergence",65%
same,plant injury at 125 g/ha,"[8]; pre-emergence, Preemergence",100%
same,pest or weed control at 16 g/ha,"[9]; post-emergence, Postemergence",10%
same,pest or weed control at 31 g/ha,"[9]; post-emergence, Postemergence",15%
same,pest or weed control at 62 g/ha,"[9]; post-emergence, Postemergence",20%
same,pest or weed control at 125 g/ha,"[9]; post-emergence, Postemergence",40%
same,pest or weed control at 16 g/ha,"[9]; pre-emergence, Preemergence",0%
same,pest or weed control at 31 g/ha,"[9]; pre-emergence, Preemergence",0%
same,pest or weed control at 62 g/ha,"[9]; pre-emergence, Preemergence",10%
same,pest or weed control at 125 g/ha,"[9]; pre-emergence, Preemergence",20%
same,pest or weed control at 16 g/ha,"[10]; post-emergence, Postemergence",10%
same,pest or weed control at 31 g/ha,"[10]; post-emergence, Postemergence",20%
same,pest or weed control at 62 g/ha,"[10]; post-emergence, Postemergence",30%
same,pest or weed control at 125 g/ha,"[10]; post-emergence, Postemergence",35%
same,pest or weed control at 16 g/ha,"[10]; pre-emergence, Preemergence",0%
same,pest or weed control at 31 g/ha,"[10]; pre-emergence, Preemergence",0%
same,pest or weed control at 62 g/ha,"[10]; pre-emergence, Preemergence",15%
same,pest or weed control at 125 g/ha,"[10]; pre-emergence, Preemergence",25%
